From article PMC10226046, “Prodrug Strategies for the Development of β-L-5-((E)-2-Bromovinyl)-1-((2S,4S)-2-(hydroxymethyl)-1,3-(dioxolane-4-yl))uracil (L-BHDU) against Varicella Zoster Virus (VZV)” (Journal of Medicinal Chemistry, 2023)
Read-outs that look alike come from different tables or passages of the source.

Experiments:
[1] = mouse, in vivo; cited from earlier work
[2] = test system: VZV; details: 15 mg/kg/day, SCID-hu mouse with human fetal skin xenografts; cited from earlier work
[3] = test system: VZV-ORF57-Luc; assay: microbe, parasite or virus in culture; assay type: cell-based, Varicella zoster virus; details: Human alphaherpesvirus 3, ARPE-19
[4] = test system: VZV-ORF57-ΔTKTS; assay: microbe, parasite or virus in culture; assay type: cell-based, Varicella zoster virus; details: Human alphaherpesvirus 3, ARPE-19
[5] = test system: VZV-ORF57-Luc; assay: microbe, parasite or virus in culture; details: Human alphaherpesvirus 3, ARPE-19, cell-free VZV-ORF57-Luc, ARPE-19 cells, 72 hpi, bioluminescence imaging
[6] = test system: VZV-ORF57-ΔTS; assay: microbe, parasite or virus in culture; assay type: cell-based, Varicella zoster virus; details: Human alphaherpesvirus 3, ARPE-19
[7] = Oral pharmacokinetic absorption study in BALB/c mice (plasma, LC-MS/MS); assay type: in vivo; details: both sexes, mouse, analyte L-BHDU in plasma, 11.4 mg/kg L-BHDU oral, BALB/c mice
Method: A pharmacokinetic absorption study was performed in BALB/c mice (Charles River). A single equimolar dose of 22.5 mg/kg POM-L-BHDU-MP or 11.4 mg/kg L-BHDU was dissolved in Cremophor–dimethyl sulfoxide (DMSO)–saline (1:1:8) and administered by oral gavage to two groups of mice with equal numbers of male and female mice (N = 15 each male and female).
Plasma was separated from red blood cells and immediately frozen at −80 °C.
This animal protocol #282 was approved by the IACUC at SUNY Upstate Medical University, which has been fully accredited by AAALAC since 7/31/1999. This method was previously used to evaluate L-BHDU effects on 5-fluorouracil metabolism.[16] Briefly, a single equimolar dose of 22.5 mg/kg POM-L-BHDU-MP or 11.4 mg/kg L-BHDU was dissolved in Cremophor–DMSO–saline (1:1:8) and administered by oral gavage to two groups of BALB/c mice (Charles River) with equal numbers of male and female mice (N = 15 each male and female). Six untreated mice were used for blank controls and were labeled time 0. At 20, 40, 60, and 120 min, three mice from the POM-L-BHDU-MP group and three mice from the L-BHDU group were anesthetized with inhaled isoflurane and then exsanguinated by cardiac puncture. Blood samples were collected into a tube containing heparin. Plasma was separated from red blood cells by centrifugation at 10,000 rpm for 5 min. Plasma was transferred to a new tube and immediately frozen at −80 °C.
Plasma samples were thawed, and exactly 0.95 mL was removed for analysis. The internal standard azidothymidine was added to mouse plasma samples at a final concentration of 20 ng/mL. Proteins were precipitated from the plasma by adding 2× volumes of methanol, then the samples were clarified by centrifugation. The supernatants were dried using an N-EVAP 116 analytical nitrogen evaporator and then reconstituted with 50% methanol in water. LC-MS/MS was used to analyze the concentrations of POM-L-BHDU-MP, L-BHDU, and L-BHDU-MP. Calibration curves were made using BALB/c mouse plasma (Innovative Research, Inc. Novi MI) prior to analyzing the experimental samples.
The primary stock solutions for the calibration were prepared at 0.5 mg/mL for L-BHDU, 1 mg/mL for POM-L-BHDU-MP, and 1 mg/mL for L-BHDU-MP. The primary stock solutions were diluted to working solutions that were in turn used to spike the biological matrix of interest. L-BHDU calibration points were 100.0, 400.0, 800.0, 1000.0, 4000.0, 6000.0, 8000.0, 10,000.0, and 12,000.0 ng/mL. L-BHDU-MP calibration points were 100.0, 200.0, 400.0, 800.0, 1000.0, 2000.0, 4000.0, 6000.0, and 8000.0 ng/mL. The ISTD working solution of AZT was prepared at 20 ng/mL. The standard stock solutions were stored in −80 °C freezer until used. […] The samples were analyzed in a negative ESI mode. […]

[8] = set-up: method as in PMID 25051026; details: mice treated with L-BHDU; cited from earlier work
[9] = test system: VZV-ORF57-ΔTK; assay: microbe, parasite or virus in culture; assay type: cell-based, Varicella zoster virus; details: Human alphaherpesvirus 3, ARPE-19
[10] = Neutral red dye uptake cytotoxicity assay in ARPE-19 cells; details: human
[11] = test system: human foreskin fibroblasts (HFFs); set-up: method as in PMID 25051026; details: cited from earlier work
[12] = test system: VZV-ORF57-Luc
[13] = set-up: method as in PMID 25051026; details: measured in various mouse organs; cited from earlier work
[14] = test system: VZV; set-up: method as in PMID 25051026; details: VZV in human foreskin fibroblasts (HFFs); cited from earlier work
[15] = selectivity index = CC50/EC50, ARPE-19 cells

For `O=c1[nH]c(=O)n([C@@H]2CO[C@H](CO)O2)cc1/C=C/Br` [L-BHDU (1), β-L-5-((E)-2-bromovinyl)-1-((2S,4S)-2-(hydroxymethyl)-1,3-(dioxolane-4-yl))uracil], the “well tolerated up to (dose)” value [1] is given as “up to 150 mg/kg”, the “effect on VZV replication” value [2] is given as “effectively reduced VZV replication” and the EC50 [3] is given as 180 nM. For the same molecule, the EC50 [4] was > 2000 nM, the EC50 [5] was 25.8 nM and the EC50 [6] was 28 nM. The Cmax at 2 h [7] was 7100 ng/mL, the Tmax at 2 h [7] was 2 h and the AUC at 2 h ([7]; 0 to 120 min) was 12700 ng·h/mL. For the same molecule, the “5-FU accumulation in treated mice” value [8] was “did not accumulate”, the EC50 [9] was > 2000 nM and the CC50 at 72 h [10] was > 100 µM. The “not cytotoxic up to” value ([11]; HFFs) was “up to 200 μM”, the “SI (CC50/EC50)” value [12] was >3878 and the “SI (CC50/EC50)” value [12, 15] was >3878. The brain penetration [13] was “did not penetrate the brain”.
In the case of `CC(C)[C@@H](N)C(=O)OC[C@H]1OC[C@@H](n2cc(/C=C/Br)c(=O)[nH]c2=O)O1.Cl` [L-BHDU-L-valine (17), L-BHDU-5′-O-L-valyl Ester Hydrochloride], the EC50 [14] is given as 30 nM, the EC50 [5] is given as 30 nM and the CC50 at 72 h [10] is given as > 100 µM. For the same molecule, the CC50 [11] was > 200 µM, the “SI (CC50/EC50)” value [12] was >3322 and the EC50 ([12]; cell-free VZV-ORF57-Luc, ARPE-19 cells, 72 hpi, bioluminescence imaging) was 30.1 nM. The “SI (CC50/EC50)” value [12, 15] was >3322 and the “SI (CC50/EC50)” value ([12]; selectivity index = CC50/EC50, ARPE-19 cells, listed as 17) was > 3322.
